“And” between values parts separate entries of the source, which are not always exact repeats. Equal entries are not always repeated.
Key:
HIV-1 IIIb strain = assay: High-density antiviral dose–response curves (Hill slope) against HIV-1 IIIb in MT-4 cells; assay type: cell-based
[1] = system: SHIV envelope (Env) glycoprotein; assay: Env (gp140) ELISA seroconversion in challenged animals; assay type: in vivo, rhesus macaques; details: for First viremia to seroconversion interval / Seroconversion timepoint: individual infected animals
Procedure: Rhesus serum binding antibody titres against gp140 trimers were determined by ELISA. Ninety-six-well Maxisorp ELISA plates (Thermo Fisher Scientific) were coated overnight with 100 μl per well of 1 μg ml^−1 mosaic M gp140 protein in PBS and were then blocked for 2 h with blocker casein in PBS (Thermo Scientific). Macaque sera were added in threefold serial dilutions and were incubated for 1 h at room temperature. The plates were washed three times with PBS containing 0.05% Tween-20 and were then incubated for 1 h with a 1:1,000 dilution of a horseradish peroxidase (HRP)-conjugated goat anti-human secondary antibody (Jackson ImmunoResearch Laboratories). The plates were then washed three times with the above wash buffer and were developed using SureBlue tetramethylbenzidine (TMB) microwell peroxidase (KPL). Development was stopped by the addition of a stop solution (KPL), and the plates were then analysed at 450 nm with a Versamax ELISA microplate reader (Molecular Devices) using Softmax Pro 6.5.1 software. The ELISA endpoint titres were defined as the highest reciprocal serum dilution that yielded an OD450 nm absorbance of >0.2. Seroconversion occurred when the OD450 nm absorbance was greater than or equal to three times the value obtained at week 0 and the endpoint titre was greater than the assay LOD, which was 1:25.

[2] = ref Yant et al, Nat.Med, 2019;[4], cited from earlier work
[3] = Metabolic stability of [3H]GS-CA1 in primary rhesus hepatocytes; assay type: in vitro ADME
Procedure: Propranolol (1 μM final), a compound known to be efficiently metabolized by hepatocytes by oxidation and conjugation, was used as a positive control. A cell-free control was incubated in parallel as a negative control. Aliquots (100 μl) were removed after 0 h, 1 h, 3 h and 6 h and were then mixed with 200 μl quenching solution, placed on a shaker for 10 min and centrifuged at 3,000g for 60 min. The supernatant was transferred to a new plate, diluted with 100 μl water and placed on a shaker for 10 min. […] PerkinElmer Ultima-Flo was used as the scintillation cocktail, which was mixed with the HPLC effluent at a ratio of 1:1. Sample (100 μl) was injected using a Leap Technologies CTC PAL autosampler. Separation was achieved on a Phenomenex Synergi Fusion-RP 80-Å pore size, 4-μm particle size, 150 × 4.6-mm column maintained at 32 °C. Mobile phase A consisted of 95% water, 5% acetonitrile and 0.1% trifluoroacetic acid (TFA). Mobile phase B consisted of 95% acetonitrile, 5% water and 0.1% TFA. […] The column was allowed to re-equilibrate for 12 min between injections. Quantification was based on the radiochromatographic peak area using Dionex (Thermo Scientific) Chromeleon 6.8 software.

in vitro = details: rhesus
Procedure: After a 24-h equilibration period at 37 °C, samples were quenched with 4 volumes of 90% (vol/vol) acetonitrile and 10% (vol/vol) methanol containing internal standard. Then, they were quantified using the AB Sciex API 4000 LC–MS/MS system (GenTech Scientific) with electrospray ionization in positive mode and multiple-reaction monitoring and were analysed using Analyst 1.6.1 software. The fold change value in 100% rhesus plasma was then calculated using the plasma/CCM ratio after correcting for the sample dilution factor and the percentage of free fraction in the matrix.

[4] = target: CA precursor (Gag polyprotein); details: ref Yant et al, Nat.Med, 2019;[4]; read-out: Binding Affinity (KD), CA precursor (Gag polyprotein); cited from earlier work
HIV-1 isolates = details: ref Yant et al, Nat.Med, 2019;[4]; read-out: EC50, human PBMCs, HIV-1 isolates; cited from earlier work

CC(C)(C#Cc1ccc(-c2ccc(Cl)c3c(NS(=O)(=O)C4CC4)nn(CC(F)F)c23)c([C@H](Cc2cc(F)cc(F)c2)NC(=O)Cn2nc(C(F)F)c3c2C(F)(F)[C@@H]2C[C@H]32)n1)S(C)(=O)=O [GS-CA1]
Hill slope (n) (HIV-1 IIIb strain): 3.03 ± 0.69 and 3.0 ± 0.7 | First viremia to seroconversion interval ([1]; 150 mg/kg): 1 weeks and 4 weeks and 5 weeks | Seroconversion timepoint ([1]; 150 mg/kg): 17 study week and 20 study week and 18 study week and 16 study week and 19 study week and 21 study week | First viremia to seroconversion interval ([1]; 300 mg/kg): 1 weeks and 3 weeks | Seroconversion timepoint ([1]; 300 mg/kg): 18 study week and 20 study week | median time to seroconversion from the onset of viraemia ([1]; all infected GS-CA1-treated animals, range 1 to 5 weeks): 4 weeks | Kinetic solubility at pH 2.0 ([2]; pH 2.0): <1, <1 μM | Kinetic solubility at pH 7.4 ([2]; pH 7.4): <1, <1 μM | hepatic extraction [3]: 2.9% | predicted rate of hepatic clearance ([3]; 3H-labelled GS-CA1): 1.2 mL/min/kg | recovery at 24 h, 2 μM (in vitro): 60% | Kd [4]: 2.4 nM | EC50 (HIV-1 isolates): 0.13 nM

Reference: publication PMC8753592, “Long-acting capsid inhibitor protects macaques from repeat SHIV challenges” (Nature, 2021)
